The values below come from publication PMC8476055, “Synthesis and Biological Activity of Triterpene–Coumarin Conjugates” (Journal of Natural Products, 2021).

In series [1] the test system is HT29 human colon adenocarcinoma cells. Kind of series: MTT cell proliferation assay, HT29 cells. Type of series: cell-based. The note with it: HT-29, 72 h treatment, untreated control = 100% viability, read-out: IC50, growth inhibition of HT29 cells. The procedure:
These studies were performed using a 3-(4,5-dimethylthiazol-2-yl)-2,5-diphenyltetrazolium bromide (MTT) assay, with increasing concentration levels of each compound (0–200 μg/mL). Cell viability was determined after treatment for 72 h, by absorption of a formazan dye.
(§1) […] ATTC HTB-38), Hep G2 human hepatocyte carcinoma cells (ECACC 85011430), nontumor human epithelial lung fibroblast cells HPF (ScienCell catalog (cat.) no. 3300), nontumor rat ileum cells IEC-18 (ECACC no. 88011801), and nontumor human embryo liver cells (ECACC 89121403) were cultured in DMEM medium supplemented with 2 mM glutamine, 10% heat-inactivated fetal bovine serum (FCS), 10.000 units/mL penicillin, and […]. These cells were incubated at 37 °C in an atmosphere of 5% CO2 and 95% humidity. The culture media were changed every 48 h, and the confluent cultures were separated with a trypsin solution (0.25% EDTA). Subconfluent monolayer cells were used in all experiments. All cell lines used were provided by the cell bank of the University of Granada (Spain).
The effect of the synthesized compounds on the viability of tumor cells was assessed using an MTT assay, based on the ability of living cells to cleave the tetrazolium ring, thus producing formazan, which absorbs at 570 nm. […] For an evaluation of the cytotoxic effects of these compounds, the cells were seeded in 96-well plates at an initial density of 5 × 10^3 B16–F10 cells, 6 × 10^3 HT29 cells, 15 × 10^3 Hep G2 cells, 8 × 10^3 HPF cells, 15 × 10^3 IEC-18 cells, and 11 × 10^3 WRL68 cells, per well. After incubation for 24 h, the cells were treated with the synthesized compounds in triplicate, at different concentrations (0–200 μg/mL), and incubated for 72 h. Thereafter, 100 μL of MTT solution (0.5 mg/mL) were added to each well. After 2 h of incubation, the cells were washed twice with phosphate buffered saline (PBS), and the formazan was resuspended in 100 μL of DMSO. Relative cell viability, with respect to untreated control cells, was measured by absorbance at 550 nm on an ELISA plate reader (Tecan Sunrise MR20-301, TECAN, Austria). […] These experiments were measured and compared to the control after 72 h of treatment.
For orientation: Formazan colour is commonly taken as a measure of viable cells.

Series [2] deals with WRL68 normal human embryo liver cells. Kind of series: MTT assay, nontumor WRL68 cells. It is filed as cell-based. Particulars: Homo sapiens, WRL68; MTT, untreated control = 100% viability; read-out: IC50, growth inhibition of WRL68 non-tumor cells.
From the text: (§2) Only MA conjugates 7 and 10 were selected to compare the growth inhibitory effects in the three nontumor cell lines (HPF, IEC-18, and WRL68) versus the three cancer cell lines (B16–F10, HT29, and Hep G2). Therefore, the cytotoxic effects on B16–F10 murine melanoma cells were compared with those of HPF normal human epithelial lung fibroblasts, with similar tissue. Similarly, the cytotoxic effects of these conjugates on HT29 colon cancer cells and Hep G2 hepatoma cells were compared with those of nontumor cells of the same tissue, such as IEC-18 normal rat ileum cells and WRL68 normal human embryo liver cells, respectively.
as §1
(§3) The effect of the synthesized compounds on the viability of tumor cells was assessed using an MTT assay, based on the ability of living cells to cleave the tetrazolium ring, thus producing formazan, which absorbs at 570 nm. The MA conjugates (1–12) were assayed against the selected cancer cell lines. For an evaluation of the cytotoxic effects of these compounds, the cells were seeded in 96-well plates at an initial density of 5 × 10^3 B16–F10 cells, 6 × 10^3 HT29 cells, 15 × 10^3 Hep G2 cells, 8 × 10^3 HPF cells, 15 × 10^3 IEC-18 cells, and 11 × 10^3 WRL68 cells, per well. After incubation for 24 h, the cells were treated with the synthesized compounds in triplicate, at different concentrations (0–200 μg/mL), and incubated for 72 h. Thereafter, 100 μL of MTT solution (0.5 mg/mL) were added to each well. After 2 h of incubation, the cells were washed twice with phosphate buffered saline (PBS), and the formazan was resuspended in 100 μL of DMSO. Relative cell viability, with respect to untreated control cells, was measured by absorbance at 550 nm on an ELISA plate reader (Tecan Sunrise MR20-301, TECAN, Austria). […] These experiments were measured and compared to the control after 72 h of treatment.

Series [3] can be described thus: MTT assay, nontumor WRL68 cells. Type of series: cell-based, human. The note with it: human, WRL68 normal embryo liver cells; at the compound's IC50 concentration for Hep G2 cancer cells.
From the text: as §2, §1, §3

Series [4] deals with HPF normal human epithelial lung fibroblasts. Kind of series: MTT assay, nontumor HPF cells. Type of series: cell-based. The note with it: Homo sapiens, Fibroblast; MTT, untreated control = 100% viability; read-out: IC50, growth inhibition of HPF non-tumor cells.
From the text: as §2, §1, §3

Series [5] can be described thus: MTT assay, nontumor HPF cells. Type of series: cell-based, human. The note with it: human, HPF normal lung fibroblast cells; at the compound's IC50 concentration for B16–F10 cancer cells; read-out: percent viability (% viability) of HPF cells.
From the text: as §2, §1, §3

Series [6] is described as follows: MTT assay, statements over the three nontumor cell lines. It is filed as cell-based. The note with it: human, rat, at the IC50 concentration of the respective cancer cell line; over HPF, IEC-18, WRL68; read-out: cell viability percentage of nontumor cells.
From the text: as §2
The effect of the synthesized compounds on the viability of tumor cells was assessed using an MTT assay, based on the ability of living cells to cleave the tetrazolium ring, thus producing formazan, which absorbs at 570 nm. The MA conjugates (1–12) were assayed against the selected cancer cell lines. […] Relative cell viability, with respect to untreated control cells, was measured by absorbance at 550 nm on an ELISA plate reader (Tecan Sunrise MR20-301, TECAN, Austria). […] These experiments were measured and compared to the control after 72 h of treatment.

For series [7], the system named is IEC-18 normal rat ileum cells. Kind of series: MTT assay, nontumor IEC-18 cells. Type of series: cell-based. Particulars: Rattus norvegicus, IEC-18; MTT, untreated control = 100% viability; read-out: IC50, growth inhibition of IEC-18 non-tumor cells.
From the text: as §2, §1, §3

Series [8] is described as follows: MTT assay, nontumor IEC-18 cells. Type of series: cell-based, rat. Particulars: rat, IEC-18 normal ileum cells; at the compound's IC50 concentration for HT29 cancer cells.
From the text: as §2, §1, §3

Usually IC50 stands for the concentration needed to halve the response being measured. On to `CC1(C)CC[C@]2(C(=O)NCCCNC(=O)c3cc4ccccc4oc3=O)CC[C@]3(C)C(=CC[C@@H]4[C@@]5(C)C[C@@H](O)[C@H](O)C(C)(C)[C@@H]5CC[C@]43C)[C@@H]2C1` [Compound 1, 2α,3β-Dihydroxy-N-(3′-(2″-oxo-2″H-chromene-3″-carboxamido)propyl)olean-12-en-28-amide], for which the IC50 in series [1] was above 10 µM.
For `CC1(C)CC[C@]2(C(=O)NCCCNC(=O)Cc3cc(=O)oc4cc(O)ccc34)CC[C@]3(C)C(=CC[C@@H]4[C@@]5(C)C[C@@H](O)[C@H](O)C(C)(C)[C@@H]5CC[C@]43C)[C@@H]2C1` [Compound 4, 2α,3β-Dihydroxy-N-(3′-(2″-(7‴-hydroxy-2‴-oxo-2‴H-chromen-4‴-yl)acetamido)propyl)olean-12-en-28-amide], the IC50 in series [1] is above 10 µM.
As a reminder, the viability is a read-out of living cells in per cent, often relative to untreated cells. In the case of `CC1(C)CC[C@]2(C(=O)NCCCNC(=O)/C=C/c3ccc(O)cc3)CC[C@]3(C)C(=CC[C@@H]4[C@@]5(C)C[C@@H](O)[C@H](O)C(C)(C)[C@@H]5CC[C@]43C)[C@@H]2C1` [Compound 7, 2α,3β-Dihydroxy-N-(3′-((E)-3″-(4‴-hydroxyphenyl)acrylamido)propyl)olean-12-en-28-amide], the IC50 in series [1] turned out to be 10.9 ± 0.5 µM; in series [2], 16.3 ± 0.9 µM; in series [4], 38.8 ± 1.3 µM; in series [7] it was 19.6 ± 0.3 µM. The viability at 72 h in series [3] is 61.4 ± 1.3%; in series [5] it was 76.9 ± 2.9%; in series [6], 61 to 88%; in series [8] it was 88 ± 0.6%.
On to `CC1(C)CC[C@]2(C(=O)O)CC[C@]3(C)C(=CC[C@@H]4[C@@]5(C)C[C@@H](OC(=O)c6cc7ccccc7oc6=O)[C@H](OC(=O)c6cc7ccccc7oc6=O)C(C)(C)[C@@H]5CC[C@]43C)[C@@H]2C1` [Compound 10], for which the concentration for half-maximal inhibition (IC50) in series [1] was 1.1 ± 0.1 µM; in series [2], 6.2 µM; in series [4] it was 24.5 ± 1.9 µM; in series [7], 7.4 ± 0.7 µM. In addition, the viability at 72 h in series [3] worked out at 87.4 ± 1.7%; in series [5] it was 92.9 ± 2.9%; in series [6], 90%; in series [8] it was 89.3 ± 2.2%.
